Columns and labels:
[1] = Solubility assay, ChemiLuminescent Nitrogen Detection (CLND) (Assay 4); type: physicochemical; conditions: phosphate buffered saline (PBS) pH 7.4, aqueous buffer, kinetic from dmso stock, PBS pH 7.4, from 10 mM DMSO stock, 1 h at room temperature
Method: Assay 4. Solubility Assay—ChemiLuminescent Nitrogen Detection (CLND) I. Compounds A 10 mM DMSO stock solution of the compound was prepared. Solvents and Buffers Organic solvents of HPLC grade were used. Ultra pure water (Milli-Q grade) was used. Buffers were prepared with ultra pure water and filtered using 0.45μ cameo filters. Aqueous Buffer Solution: Phosphate Buffer Saline (PBS) @ pH 7.4 was prepared from Sigma dry powder packs, P-3813. Each one was diluted to 1 liter with deionised water. The pH was checked before the solution was used II. Procedures. • a) DMSO concentration was measured. DMSO blanks and ondansetron and caffeine standards were added to the plate (column 12, A, B, C, & D for the blanks and E, F, G, & H for the standards). Plates were covered with foil. When the UV and CLND detectors baselines appeared to be stable, the CLND was zeroed. • b) Once DMSO concentration measurements were complete, a filtration plate was prepared from each parent plate by diluting 5 μl of the 10 mM DMSO stock solution to […] with pH7.4 PBS. • c) After the plates were prepared, they were covered with a plate lid and left to incubate for 1 h at room temperature. • d) Sample was filtered using MILLIPORE MultiScreen Solubility (MSSLBPC10) Filtration Plates, to NUNC V well plates. […]

[2] = system: Trypanosoma cruzi; assay: Trypanosoma cruzi intracellular assay (Assay 2); type: cell-based; conditions: infected H9C2 rat cardiomyocytes, 72 h incubation, read-out: pEC50 value against Trypanosoma cruzi (converted)
Method: Compounds were dispensed into black 384-well assay plates (Greiner) by acoustic dispensing (LabCyte ECHO). For potency determinations, eleven-point, one in three dilution curves were generated, with a top concentration of 50 μM. H9C2 rat cardiomyocytes cells were dispensed in T225 tissue culture flasks and after 4 hours they were infected during 18 hours with T. cruzi trypomastigotes in the same T225 tissue culture flasks at a multiplicity of infection of 1. Next, any remaining free trypomastigotes were washed away with PBS and the infected H9C2 cells were harvested by trypsinisation. The infected H9C2 cells were then plated into 384-well plates containing the compounds to be tested, at 2500 cells per well in DMEM media with 2% FBS, 1% Penicillin/Streptomicin, 2 mM L-Glutamine, 1 mM Na Pyruvate and 25 mM HEPES. After 72 h incubation at 37° C. in presence of 5% CO2, the plates were fixed and stained with 4% formaldehyde and 2 μM Draq5 for 3 hours at room temperature. The plates were imaged on a Perkin Elmer Opera high-content imaging system using a 20× air objective. Images were analyzed using the Acapella building blocks system (Perkin Elmer). The image analysis algorithm first identified the H9C2 nuclei followed by demarcation of the cytoplasm and identification of intracellular amastigotes. This algorithm reported mean number of parasites per H9C2 cell, the percentage of infected H9C2 cells and the total number of H9C2 cells.

[3] = system: THP-1 cells; assay: Leishmania donovani intracellular assay (Assay 5), THP-1 cytotoxicity; type: cell-based; conditions: human, 96 h incubation, read-out: cytotoxicity against THP-1 cells, pEC50 (converted)
Method: Assay 5. Leishmania donovani Intracellular Assay
Compounds were dispensed into black 384-well assay plates (Greiner) by acoustic dispensing (LabCyte ECHO). For potency determinations, eleven-point, one in three dilution curves were generated, with a top concentration of 50 μM. THP-1 human monocytes cells were dispensed in T225 tissue culture flasks and differentiated using 30 nM of PMA, after 24 hours they were infected overnight using Leishmania donovani expressing Green Fluorescent Protein (eGFP) amastigotes in the same T225 tissue culture flasks at a multiplicity of infection of 10. Next, any remaining free amastigotes were washed away with PBS and the infected THP-1 cells were harvested by trypsinisation. The infected cells were then plated into 384-well plates containing the compounds to be tested, at 3000 cells per well in RPMI media with 2% FBS and 25 mM Sodium bicarbonate. After 96 h incubation at 37° C. in presence of 5% CO2, the plates were fixed with 4% formaldehyde for 30 minutes, washed with PBS and stained with 0.1 mg/mL of DAPI for 30 minutes and washed again with PBS. The plates were imaged on a Perkin Elmer Opera high-content imaging system using a 20× air objective with two expositions, one for DAPI stain and other for eGFP. Images were analysed using the Acapella building blocks system (Perkin Elmer). The image analysis algorithm first identified the THP-1 nuclei followed by demarcation of the cytoplasm and identification of intracellular amastigotes. This algorithm reported mean number of parasites per THP-1 cell, the percentage of infected THP-1 cells and the total number of THP-1 cells.

solubility at 1 h [1]: > 444 µM
SMILES: O=C(Nc1ccc(F)c(-c2ccn3c(N4CCOCC4)cnc3n2)c1)N1CCCC1 [Example 4, N-(4-fluoro-3-(3-morpholinoimidazo[1,2-a]pyrimidin-7-yl)phenyl)pyrrolidine-1-carboxamide]
EC50 [2]: 39.8 nM
EC50 at 96 h [3]: > 50100 nM

From patent US10479792B2, “Compounds” (GlaxoSmithKline Intellectual Property Development Limited, priority 2015, dated 2019)
